Here are results for three compounds from patent US12304909B2, “Compounds and their use in therapy” (IMPERIAL COLLEGE INNOVATIONS LIMITED, priority 2018, dated 2025).

Broadly, the EC50 is the concentration at which the effect is half-maximal. The low end stands for an effect from little substance, the high end for a need for much substance.

The nature of data set [1]: Rat half life in vivo. As to conditions: plasma; rat oral half-life; male Sprague-Dawley rats, 3 mg/kg oral gavage; read-out: Rat or mouse t ½ (rat) (converted). The procedure:
Example Compound 1, and Comparative Examples 2 and 3 were tested for metabolic stability in male Sprague-Dawley rats. Comparative Example 5 was tested for metabolic stability in male CD-1 mice. Compounds having good metabolic stability in rats or mice are expected to be especially useful as agents for preventing and/or treating cancer, by having a long half-life in human patients.
Male Sprague-Dawley rats were fasted for 4 h before dosing. Groups of 3 rats were dosed with Example Compound 1, Comparative Example 2, or Comparative Example 3 • (i) intravenously at a dose of 1 mg/kg using a dose volume 2 mL/kg where the animals are anaesthetized using 3% v/v isoflurane:oxygen mixture and dose administered through lateral tail vein; or • (ii) orally by gavage (OG) at a dose of 3 mg/kg using a dose volume 5 ml/kg to conscious animals.
˜100 μL blood sample were collected after 5 min, 15 min, 30 min, 1 h, 2 h, 4 h, 8 h and 24 h (intravenous) and 15 min, 30 min, 1 h, 2 h, 4 h, 8 h and 24 h (oral) and transferred to heparinized capillary tubes, and subsequently into 0.5 mL microcentrifuge tubes. All blood samples are processed for plasma by centrifugation at 1640×g for 5 min at 4° C. within half an hour of collection. Plasma samples were stored at −20° C. until all samples were collected. All samples were mixed with ice-cold acetonitrile containing an internal standard (IS) in 1:4 v/v and centrifuged at 4000 rpm for 15 min at 15° C. Supernatant was then half diluted in water and loaded for LCMS/MS analysis. Analyte peak area/IS peak area (the ratio) was considered for further data analysis as described below.
Calibration curve and QC samples: Compound stock was prepared and further serial dilutions were carried out. The samples were spiked in blank plasma (1:50). Calibration curve ranged from 1 to 1250 ppb. Three quality control samples were also prepared-high QC (HQC), Mid QC (MQC and Low QC (LQC).

For data set [2], the system named is MRC5 cells. Kind of data set: Metabolic activity assay (MTS assay), MRC5. In kind it is cell-based, human. The protocol:
Example NMT inhibitors of the present invention were tested for activity in an in vitro metabolic activity assay using the human cell line MRC5. Comparative Examples 1, 2, 3, 4, 5 and 6 were also tested in the same metabolic activity assay. Compounds having activity in inhibiting metabolic activity in the assay are expected to be useful as agents for preventing and/or treating cancer, by virtue of being inhibitors of human NMT1 and/or NMT2.
MRC5 cells (obtained from Dr David Mann's group, Imperial College; cell type: fibroblasts cells which derive from normal lung tissue) were grown in DMEM media (supplemented with 10% FBS) and were seeded in a 96-well plate, 24 h prior to treatment. Cell suspensions were prepared by adjusting the cell density to the appropriate concentration (as stated in the Table 1 below) and 50 μL of the cell suspension was transferred to wells B-G in columns 2-11 of a 96-well plate.
100 μL of growth media (DMEM media) containing 0.2% DMSO was added to wells B-G in columns 2 and 11 as positive controls, and 100 μl of growth media containing Puromycin (3 μg/mL; final concentration in the plate 2 μg/mL) was added to wells B-G in column 3 as a negative control. Seven concentrations of NMT inhibitor stock solution were prepared for each Example (Example 1 and 2) and each Comparative Example (Comparative Examples 1, 2, 3, 4, 5 and 6) tested (same final percentage of DMSO, dilution factor=3 starting from 15 μM or 150 μM). 100 μL of inhibitor stock solution was added to wells B-G in columns 4-10 of a 96-well plate (final concentration of Example compound or Comparative Example compound in the plate starting from 10 μM or 100 μM; total volume in each well was 150 μL). The plate was incubated at 37° C. with 5% CO2 level.
After 72 h, 20 μL MTS reagent (Promega, prepared according to the supplier protocol) was added to each well of the 96-well plate. The plate was incubated at 37° C. for 2 h and the absorbance per well was measured at 490 nm with an EnVision plate reader. The average absorbance value of the negative control (Puromycin-treated cells) was subtracted from each value and the metabolic activity was calculated as a percentage relative to the positive control (DMSO-treated cells). EC50 values were calculated using GraphPad.
(Tetrazolium dyes change colour on reduction, which living cells bring about.)

Data set [3] is described as follows: Rat hepatocyte half life. In kind it is in vitro ADME, Sprague-Dawley rats. As to conditions: pooled cryopreserved rat hepatocytes, pH 7.4; pooled male Sprague-Dawley rat hepatocytes; read-out: Rat Hepatocyte t ½. The procedure:
Example Compound 1 was tested for metabolic stability in rat metabolic assays using hepatocytes derived from pooled male Sprague-Dawley rats. Comparative Examples 2, 3 and 4 were also tested in the same assay. Compounds having good metabolic stability in the assay are expected to be especially useful as agents for preventing and/or treating cancer, by having a long half-life in human patients.
Frozen pooled rat hepatocytes obtained from LifeTechnologies were thawed and purified according to the manufacturer's instructions. The test compound (4 mM) in DMSO was diluted with acetonitrile to provide a 100 μM sub-stock then further diluted with pH7.4 Krebs-Henseleit buffer supplemented with CaCl2), NaHCO3, HEPES, fructose and glycine) to provide a 2 μM working solution. 25 μL of working solution was incubated at 37° C., treated with 25 μL of rat hepatocyte suspension (containing 1×10^6 cells/mL) and incubated at 37° C. with 5% CO2 level at 95% relative humidity. Wells were incubated for an appropriate time (0, 15, 30, 45, 60 and 75 min) then quenched with 250 μL of acetonitrile containing reference standards diltiazem, 7-ethoxycoumarin and propranolol). The plates were shaken, sonicated for 5 min then cooled to 4° C. until all sampling was complete. All plates were centrifuged at 4000 rpm for 20 min to pellet the debris. 110 μl supernatant was diluted 110 μL water and quantitated using LC-MS/MS.
The results were used to calculate the % Remaining of the test compound at time point t=100×˜[(AUC at time point t)/(AUC at T=0)]. A linear regression curve was fitted to a plot of natural logarithm (In) of AUC against time. The T-half (min)=0.693/slope

For `CNC(=O)c1nn(C)c(C)c1CCOc1cc(F)ccc1-c1ccc2ncc(CCN)n2c1` [Comparative Example 2, 4-(2-{2-[3-(2-aminoethyl)imidazo[1,2-a]pyridin-6-yl]-5-fluorophenoxy}ethyl)-N,1,5-trimethyl-1H-pyrazole-3-carboxamide], the half-life in data set [1] was 8.3 h. This compound gave an EC50 in data set [2] (Homo sapiens, MRC5, 72 h) of over 6.8 µM. Further, the half-life at 1 µM in data set [3] was 1.35 h.
`Cc1c(CCOc2cc(Cl)ccc2-c2ccc3ncc(CCN)n3c2)c(C(=O)N(C)C)nn1C` [Example Compound 1, 4-(2-{2-[3-(2-aminoethyl)imidazo[1,2-a]pyridin-6-yl]-5-chlorophenoxy}ethyl)-N,N,1,5-tetramethyl-1H-pyrazole-3-carboxamide]: the half-life in data set [1] was 7.1 h. The compound also displayed an EC50 in data set [2] (72 h) of 0.013 µM. Further, the half-life at 1 µM in data set [3] was found to be 1.33 h.
`CNCCc1cnc2ccc(-c3ccc(F)cc3OCCc3c(C)nn(C)c3C)cn12` [Comparative Example 3, [2-(6-{4-fluoro-2-[2-(1,3,5-trimethyl-1H-pyrazol-4-yl)ethoxy]phenyl}imidazo[1,2-a]pyridin-3-yl)ethyl](methyl)amine]: the half-life in data set [1] was 4.5 h. For the same compound, the EC50 in data set [2] (Homo sapiens, MRC5, 72 h) was found to be 5.4 µM. Also, in data set [3], the half-life at 1 µM is 0.767 h.
